Results on 50 molecules are retold here after PubChem BioAssay AID1996.

The structures appear in SMILES notation. Values after ≈ are worked out from the molar mass of the structure shown. Where only a bound is given, the exact number is not on record here.

As usually defined, the solubility (kinetic) is the concentration staying in solution when a stock, usually in DMSO, is diluted into the medium.

For the series the following is noted: buffer; pH 7.4; 200.0 µM.
As for `O=C(CC(Nc1cccc(Cl)c1Cl)C(=O)O)c1ccccc1` (stereo not given), the kinetic solubility was determined as 43.2 µg/mL (≈ 128 µM).

The molecule `Nc1cc(C(=O)OCC(=O)NCCC2=CCCCC2)ccc1Cl` registered a kinetic solubility of 9.4 µg/mL (≈ 27.9 µM).

Molecule `Cc1csc(NC(=O)Cc2ccc(Br)cc2)n1` showed a solubility (kinetic) of 36.5 µg/mL (≈ 117 µM).

With `Cn1c(=O)n(CC(=O)[O-])c(=O)c2c1nc1n2CCS1`, the kinetic solubility is 40.8 µg/mL. The solubility kinetic values of the last two molecules are within 1.5-fold of each other.

Molecule `C=CCNC(=S)NC(CC(=O)OC)c1ccc2c(c1)OCO2` (stereo not given) gave a solubility (kinetic) of 30.3 µg/mL (≈ 94 µM).

Regarding `CCOC(=O)N1CCN(C(=O)c2c(N)no[n+]2[O-])CC1`, the kinetic solubility is above 42.8 µg/mL.

`CC(=O)Nc1ccc(/C=C/c2ccc3c([N+](=O)[O-])cccc3n2)cc1`: the kinetic solubility worked out at 16.2 µg/mL (≈ 48.6 µM).

`Cc1ccsc1C(=O)N1CCN(C(=O)c2ccco2)CC1` had a kinetic solubility above 45.7 µg/mL.

In turn, `Cc1cccc(C(=O)N[C@H](C(=O)Nc2ccc3c(c2)OCO3)C(C)C)c1` gave a solubility (kinetic) of 5.5 µg/mL (≈ 15.5 µM).

`CCOc1ccc(S(=O)(=O)N(CC)CC(=O)N2CCCC2)cc1`: the solubility (kinetic) was above 51.1 µg/mL.

`CCN(CC(=O)Nc1ccccc1OC)C(=O)CC1CC2CCC1C2` (stereo not given) showed a kinetic solubility above 51.7 µg/mL.

`CCOc1ccc(NC(=O)c2c3c(nc4ccccc24)CCC3)cc1` returned a kinetic solubility of 1.4 µg/mL (≈ 4.21 µM).

In turn, `Cn1ncc(Cl)c1C(=O)NC1CCCC1` had a solubility (kinetic) above 34.2 µg/mL.

`C#Cc1cccc(NC(=O)Cc2cccs2)c1` had a solubility (kinetic) above 36.2 µg/mL.

In turn, `CC1CCN(S(=O)(=O)c2c[nH]c(=O)[nH]c2=O)CC1` returned a solubility (kinetic) above 41 µg/mL.

Regarding `COc1cc(OC)cc(C(=O)N[C@H](C(=O)Nc2c(C)n(C)n(-c3ccccc3)c2=O)C(C)C)c1`, the kinetic solubility was above 70 µg/mL.

The molecule `CCCn1c(N)c(N(CCOC)C(=O)CSc2c(Cl)cccc2Cl)c(=O)[nH]c1=O` gave a kinetic solubility of 53 µg/mL (≈ 115 µM).

On to `Cc1cc(NC(=O)C(C)Oc2ccc(C(C)(C)C)cc2)no1` (stereo not given), for which the kinetic solubility came out at 4 µg/mL (≈ 13.2 µM).

The molecule `COc1ccccc1C(C[N+](=O)[O-])c1c(N)n(C)c(=O)n(C)c1=O` (stereo not given) showed a solubility (kinetic) above 50.1 µg/mL.

`Cc1cccc2cc(COC(=O)c3cccc([N+](=O)[O-])c3)c(=O)[nH]c12` displayed a solubility (kinetic) of 1.5 µg/mL (≈ 4.43 µM).

With `CC1=CC(=C(C#N)C#N)C=C(C)N1CCN1CCNCC1`, the kinetic solubility was above 42.5 µg/mL.

In turn, `CCc1sc(C(=O)Nc2ccc(N3CCOCC3)cc2)cc1C` displayed a solubility (kinetic) of 8.1 µg/mL (≈ 24.5 µM).

In turn, `O=S(=O)(NCC1CCCO1)c1ccccc1` (stereo not given) gave a kinetic solubility above 36.2 µg/mL.

In turn, `Cc1cccn2c(NC(=O)c3ccccc3F)c(-c3ccccc3)nc12` yielded a solubility (kinetic) of 2.6 µg/mL (≈ 7.53 µM).

In turn, `O=[N+]([O-])c1cc(CS(=O)(=O)Oc2ccc(Cl)cc2)c(O)c([N+](=O)[O-])c1` showed a solubility (kinetic) above 58.3 µg/mL.

Molecule `CCCCOc1ccc(-c2ncc(N)cn2)cc1` came in with a kinetic solubility of 24.2 µg/mL (≈ 99.5 µM).

As for `Cc1ccc(F)cc1S(=O)(=O)NCc1ccc(N2CCN(C)CC2)cc1`, the kinetic solubility was 16 µg/mL (≈ 42.4 µM).

In turn, `CN1CCCN(C(=O)COc2ccccc2Br)CC1` registered a kinetic solubility above 49.1 µg/mL.

As for `Cc1ccc2cccc(OCc3cccc([N+](=O)[O-])c3)c2n1`, the solubility (kinetic) is 23.6 µg/mL (≈ 80.2 µM).

In the case of `COc1ccc(CN2CCc3ccccc3C2)cc1Br`, the kinetic solubility was 11.3 µg/mL (≈ 34 µM).

In turn, `COc1ccc(S(=O)(=O)N2CCCCC2)cc1NC(=O)Cn1cnc2c1c(=O)n(C)c(=O)n2C` had a solubility (kinetic) of 28.5 µg/mL (≈ 58.1 µM). This solubility kinetic is about 2.5-fold higher than that of the molecule before.

Regarding `Cc1ccc(NC(=S)N2CC(C)OC(C)C2)cc1C` (stereo not given), the solubility (kinetic) was above 41.8 µg/mL.

The molecule `CCCCc1ccc(NC(=O)N[C@@H](C)C(=O)O)cc1` returned a solubility (kinetic) above 39.6 µg/mL.

In the case of `COc1ccc(Nc2nc(C)cc(C)n2)cc1Cl.Cl`, the kinetic solubility was above 45 µg/mL.

Molecule `CSc1nc2c(c(=O)[nH]c(=O)n2C)n1Cc1ccc(Cl)cc1` had a solubility (kinetic) of 1.2 µg/mL (≈ 3.56 µM).

In turn, `O=C(C1CCCC1)N1CCCC(Nc2ccccc2)C1` (stereo not given) registered a kinetic solubility of 35.9 µg/mL (≈ 132 µM). Compared with the last molecule, the solubility kinetic is about 30-fold higher.

With `CC(C)(C)c1cc(NS(=O)(=O)c2cccs2)no1`, the kinetic solubility came to 30.8 µg/mL (≈ 108 µM).

In turn, `CC(C)(C)C(=O)Nc1ccc(S(=O)(=O)NC2=NCCCCC2)cc1` registered a solubility (kinetic) above 52.7 µg/mL.

The molecule `COc1ccc(NC(=O)CN(C)CC(=O)NC2CCCCC2C)cc1` (stereo not given) displayed a solubility (kinetic) of 50.2 µg/mL (≈ 144 µM).

Consider `Cc1ccccc1NC(=O)CCCCC(=O)Nc1ccccc1C`, for which the kinetic solubility was found to be 2.6 µg/mL (≈ 8.01 µM).

For the molecule `COc1ccccc1CNCC(=O)Nc1cc(S(=O)(=O)N2CCCCC2)ccc1C.O=C(O)C(=O)O`, the kinetic solubility turned out to be 34.3 µg/mL.

`CCn1cc(C(=O)N2CCCCC2)c2ccccc21` showed a kinetic solubility above 38.5 µg/mL.

Consider `Cc1cc(O)cc(=O)n1CCc1ccccc1`, for which the solubility (kinetic) is above 34.4 µg/mL.

`c1ccc(CO/N=C(\c2ccc(C3CC3)nc2)C2CC2)cc1` came in with a kinetic solubility of 1.9 µg/mL (≈ 6.5 µM).

Molecule `CCCCNC(=O)c1cc(C)nc2ccccc12` came in with a kinetic solubility above 36.3 µg/mL.

As to `C=CCNC(=O)c1ccc(NC(=O)C2=CSCCO2)cc1`, the solubility (kinetic) is above 45.7 µg/mL.

The molecule `COc1ccccc1NS(=O)(=O)c1ccc(C(=O)N2CCCCCC2)cc1` showed a kinetic solubility above 58.3 µg/mL.

In turn, `CCN(CCS(=O)(=O)c1ccc(Cl)cc1)Cc1nc2ccccc2c(=O)[nH]1` displayed a solubility (kinetic) above 60.9 µg/mL.

On to `O=C(O)CC1(CC(=O)Nc2cc3ccccc3cn2)CCCCC1`, for which the solubility (kinetic) turned out to be 40.7 µg/mL (≈ 125 µM).

Regarding `CN1CCN(C(=S)NC(=O)c2ccc(Br)cc2)CC1`, the kinetic solubility turned out to be 51 µg/mL (≈ 149 µM). The solubility kinetic values of the last two molecules are within 1.5-fold of each other.
